In US10765114B2, “4-amino-6-(pyridyl and 2-substitutedphenyl)-picolinates and 6-amino-2-(pyridyl and 2-substitutedphenyl)-pyrimidine-4-carboxylates and their use as herbicides” (Dow AgroSciences LLC, priority 2013, dated 2020):

System: Key Broadleaf Weed and Crop Species
Test: Post-Emergent Test II (Table 5)
Type: in vivo
Settings: Abutilon theophrasti, post-emergence, 336 h, ABUTH: velvetleaf (Abutilon theophrasti), application rate 70 (kg ai/ha; footnote: g ai/ha), read-out: Visual Growth Reduction (%) 14 Days After Application ABUTH
In short: (§1)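 Plants grown in a greenhouse (~15 h photoperiod, 23-29° C day) to first or second true leaf stage were sprayed post-emergence at 187 L/ha with compound in acetone/DMSO-based aqueous spray containing crop oil concentrate and surfactant, applied at a high rate plus ½× to 1/16× serial rates. Injury was scored visually 14 days later, 0-100% versus untreated plants.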

Row | SMILES | pest or weed control at 70 g/ha
1 | COC(=O)c1nc(-c2cccnc2)c(F)c(N)c1Cl [Compound 50] | 0 to 29%

Same assay, conditions: Abutilon theophrasti, post-emergence, 336 h, ABUTH: velvetleaf (Abutilon theophrasti), application rate 140 (kg ai/ha; footnote: g ai/ha), read-out: Visual Growth Reduction (%) 14 Days After Application ABUTH

Row | SMILES | pest or weed control at 140 g/ha
2 | COC(=O)c1nc(-c2cccnc2)c(F)c(N)c1Cl [Compound 50] | 0 to 29%

Same assay, conditions: Amaranthus retroflexus, post-emergence, 336 h, AMARE: redroot pigweed (Amaranthus retroflexus), application rate 70 (kg ai/ha; footnote: g ai/ha), read-out: Visual Growth Reduction (%) 14 Days After Application AMARE

Row | SMILES | pest or weed control at 70 g/ha
3 | COC(=O)c1nc(-c2cccnc2)c(F)c(N)c1Cl [Compound 50] | 0 to 29%

Same assay, conditions: Amaranthus retroflexus, post-emergence, 336 h, AMARE: redroot pigweed (Amaranthus retroflexus), application rate 140 (kg ai/ha; footnote: g ai/ha), read-out: Visual Growth Reduction (%) 14 Days After Application AMARE

Row | SMILES | pest or weed control at 140 g/ha
4 | COC(=O)c1nc(-c2cccnc2)c(F)c(N)c1Cl [Compound 50] | 95 to 100%

Same assay, conditions: Brassica napus, post-emergence, 336 h, BRSSS: oilseed rape, canola (Brassica napus), application rate 70 (kg ai/ha; footnote: g ai/ha), read-out: Visual Growth Reduction (%) 14 Days After Application BRSSS

Row | SMILES | pest or weed control at 70 g/ha
5 | COC(=O)c1nc(-c2cccnc2)c(F)c(N)c1Cl [Compound 50] | 0 to 29%

Same assay, conditions: Brassica napus, post-emergence, 336 h, BRSSS: oilseed rape, canola (Brassica napus), application rate 140 (kg ai/ha; footnote: g ai/ha), read-out: Visual Growth Reduction (%) 14 Days After Application BRSSS

Row | SMILES | pest or weed control at 140 g/ha
6 | COC(=O)c1nc(-c2cccnc2)c(F)c(N)c1Cl [Compound 50] | 30 to 44%

Same assay, conditions: Chenopodium album, post-emergence, 336 h, CHEAL: lambsquarters (Chenopodium album), application rate 70 (kg ai/ha; footnote: g ai/ha), read-out: Visual Growth Reduction (%) 14 Days After Application CHEAL

Row | SMILES | pest or weed control at 70 g/ha
7 | COC(=O)c1nc(-c2cccnc2)c(F)c(N)c1Cl [Compound 50] | 75 to 84%

Same assay, conditions: Chenopodium album, post-emergence, 336 h, CHEAL: lambsquarters (Chenopodium album), application rate 140 (kg ai/ha; footnote: g ai/ha), read-out: Visual Growth Reduction (%) 14 Days After Application CHEAL

Row | SMILES | pest or weed control at 140 g/ha
8 | COC(=O)c1nc(-c2cccnc2)c(F)c(N)c1Cl [Compound 50] | 85 to 94%

Same assay, conditions: Euphorbia heterophylla, post-emergence, 336 h, EPHHL: wild poinsettia (Euphorbia heterophylla), application rate 70 (kg ai/ha; footnote: g ai/ha), read-out: Visual Growth Reduction (%) 14 Days After Application EPHHL

Row | SMILES | pest or weed control at 70 g/ha
9 | COC(=O)c1nc(-c2cccnc2)c(F)c(N)c1Cl [Compound 50] | 0 to 29%

Same assay, conditions: Euphorbia heterophylla, post-emergence, 336 h, EPHHL: wild poinsettia (Euphorbia heterophylla), application rate 140 (kg ai/ha; footnote: g ai/ha), read-out: Visual Growth Reduction (%) 14 Days After Application EPHHL

Row | SMILES | pest or weed control at 140 g/ha
10 | COC(=O)c1nc(-c2cccnc2)c(F)c(N)c1Cl [Compound 50] | 0 to 29%

Same assay, conditions: Helianthus annuus, post-emergence, 336 h, HELAN: sunflower (Helianthus annuus), application rate 70 (kg ai/ha; footnote: g ai/ha), read-out: Visual Growth Reduction (%) 14 Days After Application HELAN

Row | SMILES | pest or weed control at 70 g/ha
11 | COC(=O)c1nc(-c2cccnc2)c(F)c(N)c1Cl [Compound 50] | 85 to 94%

Same assay, conditions: Helianthus annuus, post-emergence, 336 h, HELAN: sunflower (Helianthus annuus), application rate 140 (kg ai/ha; footnote: g ai/ha), read-out: Visual Growth Reduction (%) 14 Days After Application HELAN

Row | SMILES | pest or weed control at 140 g/ha
12 | COC(=O)c1nc(-c2cccnc2)c(F)c(N)c1Cl [Compound 50] | 85 to 94%

Same assay, conditions: Viola tricolor, post-emergence, 336 h, VIOTR: wild pansy (Viola tricolor), application rate 70 (kg ai/ha; footnote: g ai/ha), read-out: Visual Growth Reduction (%) 14 Days After Application VIOTR

Row | SMILES | pest or weed control at 70 g/ha
13 | COC(=O)c1nc(-c2cccnc2)c(F)c(N)c1Cl [Compound 50] | 0 to 29%

Same assay, conditions: Viola tricolor, post-emergence, 336 h, VIOTR: wild pansy (Viola tricolor), application rate 140 (kg ai/ha; footnote: g ai/ha), read-out: Visual Growth Reduction (%) 14 Days After Application VIOTR

Row | SMILES | pest or weed control at 140 g/ha
14 | COC(=O)c1nc(-c2cccnc2)c(F)c(N)c1Cl [Compound 50] | 0 to 29%

System: Key Grass and Sedge Weeds as well as Grass Crops
Test: Post-Emergent Test II (Table 6)
Type: in vivo
Settings: post-emergence, 336 h, CYPSS, 70 g ai/ha, 14 days after application, read-out: Visual Growth Reduction (%) 14 Days After Application CYPSS
In short: as §1

Row | SMILES | pest or weed control at 70 g/ha
15 | COC(=O)c1nc(-c2cccnc2)c(F)c(N)c1Cl [Compound 50] | 0 to 29%

Same assay, conditions: post-emergence, 336 h, CYPSS, 140 g ai/ha, 14 days after application, read-out: Visual Growth Reduction (%) 14 Days After Application CYPSS

Row | SMILES | pest or weed control at 140 g/ha
16 | COC(=O)c1nc(-c2cccnc2)c(F)c(N)c1Cl [Compound 50] | 0 to 29%

Same assay, conditions: post-emergence, 336 h, DIGSA: crabgrass (Digitaria sanguinalis), 70 g ai/ha, 14 days after application, read-out: Visual Growth Reduction (%) 14 Days After Application DIGSA

Row | SMILES | pest or weed control at 70 g/ha
17 | COC(=O)c1nc(-c2cccnc2)c(F)c(N)c1Cl [Compound 50] | 0 to 29%

Same assay, conditions: post-emergence, 336 h, DIGSA: crabgrass (Digitaria sanguinalis), 140 g ai/ha, 14 days after application, read-out: Visual Growth Reduction (%) 14 Days After Application DIGSA

Row | SMILES | pest or weed control at 140 g/ha
18 | COC(=O)c1nc(-c2cccnc2)c(F)c(N)c1Cl [Compound 50] | 0 to 29%

Same assay, conditions: post-emergence, 336 h, ECHSS, 70 g ai/ha, 14 days after application, read-out: Visual Growth Reduction (%) 14 Days After Application ECHSS

Row | SMILES | pest or weed control at 70 g/ha
19 | COC(=O)c1nc(-c2cccnc2)c(F)c(N)c1Cl [Compound 50] | 0 to 29%

Same assay, conditions: post-emergence, 336 h, ECHSS, 140 g ai/ha, 14 days after application, read-out: Visual Growth Reduction (%) 14 Days After Application ECHSS

Row | SMILES | pest or weed control at 140 g/ha
20 | COC(=O)c1nc(-c2cccnc2)c(F)c(N)c1Cl [Compound 50] | 0 to 29%

Same assay, conditions: post-emergence, 336 h, ORYSS (crop), 70 g ai/ha, 14 days after application, read-out: Visual Growth Reduction (%) 14 Days After Application ORYSS

Row | SMILES | pest or weed control at 70 g/ha
21 | COC(=O)c1nc(-c2cccnc2)c(F)c(N)c1Cl [Compound 50] | 0 to 29%

Same assay, conditions: post-emergence, 336 h, ORYSS (crop), 140 g ai/ha, 14 days after application, read-out: Visual Growth Reduction (%) 14 Days After Application ORYSS

Row | SMILES | pest or weed control at 140 g/ha
22 | COC(=O)c1nc(-c2cccnc2)c(F)c(N)c1Cl [Compound 50] | 0 to 29%

Same assay, conditions: post-emergence, 336 h, SETFA: giant foxtail (Setaria faberi), 140 g ai/ha, 14 days after application, read-out: Visual Growth Reduction (%) 14 Days After Application SETFA

Row | SMILES | pest or weed control at 140 g/ha
23 | COC(=O)c1nc(-c2cccnc2)c(F)c(N)c1Cl [Compound 50] | 60 to 74%

Same assay, conditions: post-emergence, 336 h, SORVU: grain sorghum (Sorghum vulgare), 70 g ai/ha, 14 days after application, read-out: Visual Growth Reduction (%) 14 Days After Application SORVU

Row | SMILES | pest or weed control at 70 g/ha
24 | COC(=O)c1nc(-c2cccnc2)c(F)c(N)c1Cl [Compound 50] | 0 to 29%

Same assay, conditions: post-emergence, 336 h, SORVU: grain sorghum (Sorghum vulgare), 140 g ai/ha, 14 days after application, read-out: Visual Growth Reduction (%) 14 Days After Application SORVU

Row | SMILES | pest or weed control at 140 g/ha
25 | COC(=O)c1nc(-c2cccnc2)c(F)c(N)c1Cl [Compound 50] | 0 to 29%

Same assay, conditions: post-emergence, 336 h, TRZSS (crop), 70 g ai/ha, 14 days after application, read-out: Visual Growth Reduction (%) 14 Days After Application TRZSS

Row | SMILES | pest or weed control at 70 g/ha
26 | COC(=O)c1nc(-c2cccnc2)c(F)c(N)c1Cl [Compound 50] | 0 to 29%

Same assay, conditions: post-emergence, 336 h, TRZSS (crop), 140 g ai/ha, 14 days after application, read-out: Visual Growth Reduction (%) 14 Days After Application TRZSS

Row | SMILES | pest or weed control at 140 g/ha
27 | COC(=O)c1nc(-c2cccnc2)c(F)c(N)c1Cl [Compound 50] | 0 to 29%

Same assay, conditions: post-emergence, 336 h, ZEAMX: maize, corn (Zea mays), 70 g ai/ha, 14 days after application, read-out: Visual Growth Reduction (%) 14 Days After Application ZEAMX

Row | SMILES | pest or weed control at 70 g/ha
28 | COC(=O)c1nc(-c2cccnc2)c(F)c(N)c1Cl [Compound 50] | 0 to 29%

Same assay, conditions: post-emergence, 336 h, ZEAMX: maize, corn (Zea mays), 140 g ai/ha, 14 days after application, read-out: Visual Growth Reduction (%) 14 Days After Application ZEAMX

Row | SMILES | pest or weed control at 140 g/ha
29 | COC(=O)c1nc(-c2cccnc2)c(F)c(N)c1Cl [Compound 50] | 0 to 29%

System: not given
Test: not given
Settings: not given

Row | melting point | SMILES
30 | 163 to 164 °C | COC(=O)c1nc(-c2cccnc2)c(F)c(N)c1Cl [Compound 50]
